Laboratory results as given in US20080026417A1, “ASSAYS FOR TRICHOMONAL AND OTHER HYDROLASES” (priority 2002, published 2008).
Ends that are not written are not given here.

Legend:
trichomonal hydrolases [1] = test: Experiment 1: hydrolysis of substrates by trichomonal hydrolases at pH 2.8-9.2, with or without normal vaginal fluid supernatant (NVS), absorbance 540 nm; type: biochemical, Trichomonas vaginalis; conditions: 540 nm
Method: Assays without normal vaginal fluid supernatant present: Two sets of six wells in a microtiter plate were prepared, with each well containing 80 μL of one of the six 200 mM buffers, 10 μL of water and 10 μL of diluted trichomonal hydrolases. Ten μL of ZRR-MNA was added to each well in the first set of wells, and 10 μl of VLK-MNA was added to each well in the second set of wells. After fifteen minutes, 100 μl of indicator solution was added to each well. Because a high pH can reduce the intensity of color produced by the indicator solution, 50 μl of 100 mM acetic acid buffer, pH 3.7, was added to each well except the pH 2.8 wells (water was substituted for the acetic acid in those wells). After another fifteen minutes, the absorbance of the solutions in the wells was measured on a microtiter plate reader set on 540 nm wavelength.
Assays with normal vaginal fluid supernatant (NVS) present: The procedure of the preceding paragraph was followed, except that 10 μL of diluted NVS was added to the wells in place of the 10 μL of water.

trichomonal hydrolases [2] = test: Experiment 13: hydrolysis of peptide substrates by trichomonal hydrolases at low pH, no vaginal fluid; type: biochemical, Trichomonas vaginalis; design: key: −: No red color produced; +: Clearly visible red color produced; ++: Moderately intense red color produced; +++: Very intense red color produced; conditions: without vaginal fluid; threonine buffer pH 2.4; 2 mM substrate solution; 10 min 25° C.; Fast Garnet
Method: (§1) Forty μL of each substrate was pipetted into duplicate wells of a microtiter plate. The plate was covered with tape, placed into a 25° C. incubator, and allowed to warm. A diluted enzyme mixture was prepared by mixing one part (v/v) freshly-thawed trichomonal hydrolase solution to nine parts 2 mM L-cysteine solution. Forty μL of this mixture was added to one well of each pair of duplicate wells. For negative controls, 40 μL of 2 mM L-cysteine was added to the second well in each pair of duplicate wells. The plate was returned to the incubator and incubated for ten minutes. Forty μL of SDS/acetate solution was added to each well, followed by 40 μL of Fast Garnet solution. The intensity of color that developed in each well after five minutes was visually scored using the color scale presented in Table 13.1.

trichomonal hydrolases [3] = test: Experiment 13: hydrolysis of peptide substrates by trichomonal hydrolases at low pH in vaginal fluid supernatant; type: biochemical, Trichomonas vaginalis; design: key: −: No red color produced; +: Clearly visible red color produced; ++: Moderately intense red color produced; +++: Very intense red color produced; conditions: Fast Garnet
Method: as §1
Of the nine substrates hydrolyzed by trichomonal hydrolases to produce an intense pink color (scoring ++ or +++) in the absence of vaginal fluid supernatant, only four produced intense pink color when vaginal fluid supernatant was present.

[4] = system: non-trichomonal hydrolases present in vaginal fluid; test: Experiment 8: polypeptide inhibition of hydrolases in whole vaginal fluid of uninfected women; type: biochemical, human; design: key: 0: Yellow; 1: Peach; 2: Orange; 3: Light to medium pink; 4: Dark pink or red; 5: Fuchsia; 6: Purple; conditions: ZRR-MNA, 10 mM polypeptide in substrate solution
Method: (§2) The vaginal fluid was extracted from each swab by centrifugation, and then mixed to resuspend the particulate matter. For each donor, 2 μL of vaginal fluid was pipetted into each of ten microwells, then 2 μL of one of the ten substrate/buffer/polypeptide combinations was added to each well. Additionally, 2 μL of trichomonal hydrolases was mixed with 2 μL of each of the substrate/polypeptide combinations in set of ten wells. After fifteen minutes, 2 μL of indicator solution was added to each well.

trichomonal hydrolases [5] = test: Experiment 8: polypeptide inhibition of trichomonal hydrolases; type: biochemical, Trichomonas vaginalis; design: key: 0: Yellow; 1: Peach; 2: Orange; 3: Light to medium pink; 4: Dark pink or red; 5: Fuchsia; 6: Purple; conditions: 10 mM polypeptide in substrate solution
Method: as §2

[6] = system: non-trichomonal hydrolases present in whole vaginal fluid; test: Experiment 9: dipeptide inhibition of hydrolases in whole vaginal fluid of uninfected women; type: biochemical, human; design: key: 0: Yellow; 1: Peach; 2: Orange; 3: Light to medium pink; 4: Dark pink or red; 5: Fuchsia; 6: Purple; conditions: ZRR-MNA, 10 mM dipeptide in substrate solution
Method: (§3) For each specimen, the vaginal fluid was extracted from the swab by centrifugation, 2 μL of the vaginal fluid supernatant was removed from the microfuge tube, and the remainder of the fluid was mixed to resuspend the particulate matter. For each specimen, 2 μL of the thus reconstituted vaginal fluid was pipetted into each of four microwells, then 2 μL of one of the four substrate/dipeptide combinations was added to each well. The 2 μL of vaginal fluid supernatant from each specimen was mixed with 18 μL of trichomonal hydrolases, and 2 μL of this mixture was mixed with 2 μL of each of the substrate/dipeptide combinations in another set of four wells. After fifteen minutes, 2 μL of indicator solution was added to each well.

trichomonal hydrolases [7] = test: Experiment 9: dipeptide inhibition of trichomonal hydrolases mixed with vaginal fluid supernatant; type: biochemical, Trichomonas vaginalis; design: key: 0: Yellow; 1: Peach; 2: Orange; 3: Light to medium pink; 4: Dark pink or red; 5: Fuchsia; 6: Purple; conditions: trichomonal hydrolase added, ZRR-MNA, 10 mM dipeptide in substrate solution
Method: as §3

[8] = pH 5, Donor A whole vaginal fluid
[9] = pH 5, Donor B whole vaginal fluid
[10] = pH 5, Donor C whole vaginal fluid
[11] = pH 5, Donor D whole vaginal fluid
[12] = pH 8, Donor A whole vaginal fluid
[13] = pH 8, Donor B whole vaginal fluid
[14] = pH 8, Donor C whole vaginal fluid
[15] = pH 8, Donor D whole vaginal fluid
[16] = Donor A vaginal fluid supernatant
[17] = Donor B vaginal fluid supernatant
[18] = Donor C vaginal fluid supernatant
[19] = Donor D vaginal fluid supernatant

Compound | Color Score (trichomonal hydrolases [2]) | Color Score (trichomonal hydrolases [3]) | Hydrolase activity color score with polypeptide [4, 8] | Hydrolase activity color score with polypeptide [4, 9] | Hydrolase activity color score with polypeptide [4, 10] | Hydrolase activity color score with polypeptide [4, 11] | Hydrolase activity color score with polypeptide [4, 12] | Hydrolase activity color score with polypeptide [4, 13] | Hydrolase activity color score with polypeptide [4, 14] | Hydrolase activity color score with polypeptide [4, 15] | Hydrolase activity color score with polypeptide (trichomonal hydrolases [5]; pH 5, ZRR-MNA) | Hydrolase activity color score with polypeptide (trichomonal hydrolases [5]; pH 8, ZRR-MNA) | further results
COc1cc(NC(=O)C(CCCCN)NC(=O)C(CC(C)C)NC(=O)C(N)C(C)C)cc2ccccc12 [VLK-MNA, D-Val-Leu-Lys-MNA] | ++ | + |  |  |  |  |  |  |  |  |  |  | Absorbance Readings (trichomonal hydrolases [1]; with vaginal fluid supernatant, Acetate pH 5.1): 0.065; Absorbance Readings (trichomonal hydrolases [1]; with vaginal fluid supernatant, Borate pH 9.2): 0.062; Absorbance Readings (trichomonal hydrolases [1]; with vaginal fluid supernatant, Gly-gly pH 2.8): 0.094; Absorbance Readings (trichomonal hydrolases [1]; with vaginal fluid supernatant, HEPES pH 7.5): 0.063; Absorbance Readings (trichomonal hydrolases [1]; with vaginal fluid supernatant, MOPS pH 7.0): 0.066; Absorbance Readings (trichomonal hydrolases [1]; with vaginal fluid supernatant, TRIS pH 8.0): 0.073; Absorbance Readings (trichomonal hydrolases [1]; without vaginal fluid supernatant, Acetate pH 5.1): 1.622; Absorbance Readings (trichomonal hydrolases [1]; without vaginal fluid supernatant, Borate pH 9.2): 1.459; Absorbance Readings (trichomonal hydrolases [1]; without vaginal fluid supernatant, Gly-gly pH 2.8): 0.691; Absorbance Readings (trichomonal hydrolases [1]; without vaginal fluid supernatant, HEPES pH 7.5): 1.217; Absorbance Readings (trichomonal hydrolases [1]; without vaginal fluid supernatant, MOPS pH 7.0): 1.087; Absorbance Readings (trichomonal hydrolases [1]; without vaginal fluid supernatant, TRIS pH 8.0): 1.219
KRQHPG |  |  | 2 | 2 | 0 | 2 | 2.5 | 2 | 0.5 | 2 | 3 | 3 | 
RPKPQFFGLM [Arg-Pro-Lys-Pro-Gln-Phe-Phe-Gly-Leu-Met] |  |  | 0.5 | 1 | 0 | 0.5 | 0.5 | 0.5 | 0 | 0 | 1 | 0.5 | 
KPQLWP |  |  | 0 | 0 | 0 | 0 | 0.5 | 0.5 | 0 | 0 | 3 | 3 | 
Lysine-proline |  |  |  |  |  |  |  |  |  |  |  |  | Hydrolase activity color score with dipeptide ([6]; Donor A whole vaginal fluid): 0; Hydrolase activity color score with dipeptide ([6]; Donor B whole vaginal fluid): 0; Hydrolase activity color score with dipeptide ([6]; Donor C whole vaginal fluid): 0; Hydrolase activity color score with dipeptide ([6]; Donor D whole vaginal fluid): 0; Hydrolase activity color score with dipeptide (trichomonal hydrolases [7]; [16]): 1; Hydrolase activity color score with dipeptide (trichomonal hydrolases [7]; [17]): 1; Hydrolase activity color score with dipeptide (trichomonal hydrolases [7]; [18]): 0.5; Hydrolase activity color score with dipeptide (trichomonal hydrolases [7]; [19]): 2
COc1cc(NC(=O)[C@H](CCCN=C(N)N)NC(=O)[C@H](CCCN=C(N)N)NC(=O)[C@H](C)NC(=O)OCc2ccccc2)cc2ccccc12 [CBZ-Ala-Arg-Arg-MNA] | ++ | + |  |  |  |  |  |  |  |  |  |  | 
Arg-Lys-Asn-Val-Tyr (RKNVY; printed: Arg-Lys-Asn-Val-Tyr) |  |  | 0.5 | 0 | 0 | 0 | 0.5 | 0.5 | 1 | 1 | 3 | 3 | 
Lysine-lysine |  |  |  |  |  |  |  |  |  |  |  |  | Hydrolase activity color score with dipeptide ([6]; Donor A whole vaginal fluid): 1; Hydrolase activity color score with dipeptide ([6]; Donor B whole vaginal fluid): 0; Hydrolase activity color score with dipeptide ([6]; Donor C whole vaginal fluid): 0; Hydrolase activity color score with dipeptide ([6]; Donor D whole vaginal fluid): 2.5; Hydrolase activity color score with dipeptide (trichomonal hydrolases [7]; [16]): 1; Hydrolase activity color score with dipeptide (trichomonal hydrolases [7]; [17]): 2; Hydrolase activity color score with dipeptide (trichomonal hydrolases [7]; [18]): 1; Hydrolase activity color score with dipeptide (trichomonal hydrolases [7]; [19]): 2
COc1cc(NC(=O)[C@H](CCCNC(=N)N)NC(=O)[C@H](Cc2ccccc2)NC(=O)OCc2ccccc2)cc2ccccc12 [CBZ-Phe-Arg-MNA] | ++ | + |  |  |  |  |  |  |  |  |  |  | 
COc1cc(NC(=O)[C@H](CCCN=C(N)N)NC(=O)[C@H](CC(C)C)NC(=O)OCc2ccccc2)cc2ccccc12 [ZLR, CBZ-Leu-Arg-MNA] | +++ | +++ |  |  |  |  |  |  |  |  |  |  | 
COc1cc(NC(=O)[C@H](CCCNC(=N)N)NC(=O)[C@@H](NC(=O)[C@H](Cc2ccccc2)NC(=O)c2ccccc2)C(C)C)cc2ccccc12 [BZ-Phe-Val-Arg-MNA] | ++ | + |  |  |  |  |  |  |  |  |  |  | 
Lysine-valine |  |  |  |  |  |  |  |  |  |  |  |  | Hydrolase activity color score with dipeptide ([6]; Donor A whole vaginal fluid): 1; Hydrolase activity color score with dipeptide ([6]; Donor B whole vaginal fluid): 0; Hydrolase activity color score with dipeptide ([6]; Donor C whole vaginal fluid): 0; Hydrolase activity color score with dipeptide ([6]; Donor D whole vaginal fluid): 1.5; Hydrolase activity color score with dipeptide (trichomonal hydrolases [7]; [16]): 1; Hydrolase activity color score with dipeptide (trichomonal hydrolases [7]; [17]): 2; Hydrolase activity color score with dipeptide (trichomonal hydrolases [7]; [18]): 1; Hydrolase activity color score with dipeptide (trichomonal hydrolases [7]; [19]): 2
